Where a name gives a salt, the structure may show the parent alone.
Row | SMILES | melting point
1 | Cl.Cl.O=C(CC1CCN(Cc2ccc(F)cc2)CC1)c1ccc2c(c1)CCN(Cc1ccccc1)CC2 | 243 to 247 °C (dec.)
2 | Cl.Cl.O=C(CCCC1CCN(Cc2ccccc2)CC1)c1ccc2c(c1)CCN(Cc1ccccc1)CC2 | 220 to 222 °C (dec.)
3 | Cc1ccc(CN2CCC(CC(=O)c3ccc4c(c3)CCN(Cc3ccccc3)CC4)CC2)cc1.Cl.Cl | 229 to 233 °C
4 | Cc1ccc(CN2CCC(CCCC(=O)c3ccc4c(c3)CCN(Cc3ccc([N+](=O)[O-])cc3)CC4)CC2)cc1.Cl.Cl | 208 to 211 °C
5 | CC(=O)N1CCC(CCC(=O)c2ccc3c(c2)CN(Cc2ccccc2)c2ccccc2CC3)CC1.Cl | 155 to 158 °C
6 | CC(=O)N1CCC(CCC(=O)c2ccc3c(c2)CN(Cc2ccc(F)cc2)CCO3)CC1.Cl | 186 to 188 °C
7 | CCOC(=O)C1(C(=O)OCC)Oc2ccc(CN3CCC(CCC(=O)c4ccc5c(c4)CN(Cc4ccc(F)cc4)CCO5)CC3)cc2O1 (as salt: hydrochloride) | 199 °C (dec.)
8 | O=C(O)COc1cccc(CN2CCC(CCC(=O)c3ccc4c(c3)CN(Cc3ccc(F)cc3)CCO4)CC2)c1 (as salt: hydrochloride) | 201 to 204 °C
9 | CC(c1ccccc1)N1CCC(CCC(=O)c2ccc3c(c2)CN(Cc2ccc(F)cc2)CCO3)CC1 (stereo not drawn) (as salt: hydrochloride) | 235 to 237 °C
10 | O=C(CCC1CCN(Cc2ccncc2)CC1)c1ccc2c(c1)CN(Cc1ccccc1)CCO2 (as salt: hydrochloride) | 243 to 245 °C
11 | Cc1cccc(CN2CCC(CCCC(=O)c3ccc4c(c3)CCN(Cc3ccccc3C)CC4)CC2)c1 (as salt: hydrochloride) | 179 to 182 °C
12 | Cc1ccccc1CN1CCc2ccc(C(=O)CCCC3CCN(Cc4ccccc4Cl)CC3)cc2CC1 (as salt: hydrochloride) | 165 to 168 °C
13 | O=C(CCC1CCN(Cc2ccc3c(c2)OCO3)CC1)c1ccc2c(c1)CN(Cc1ccccc1)CCO2 (as salt: hydrochloride) | 233 to 235 °C
14 | O=C(CCC1CCN(Cc2cc([N+](=O)[O-])cc([N+](=O)[O-])c2)CC1)c1ccc2c(c1)CN(Cc1ccccc1)CCO2 (as salt: hydrochloride) | 232 °C (dec.)
15 | COC(=O)c1ccc(CN2CCC(CCCC(=O)c3ccc4c(c3)CCN(Cc3ccccc3)CC4)CC2)cc1 (as salt: hydrochloride) | 239 to 244 °C (dec.)
16 | Cc1ccc(CN2CCC(CCCC(=O)c3ccc4c(c3)CCN(Cc3ccccc3Cl)CC4)CC2)cc1 (as salt: hydrochloride) | 174 to 178 °C

Row | SMILES | melting point
17 | Cc1ccc(CN2CCC(CCCC(=O)c3ccc4c(c3)CCN(Cc3ccc(Cl)cc3)CC4)CC2)cc1 (as salt: hydrochloride) | 230 to 234 °C
18 | O=C(CCC1CCN(Cc2cccc(C(F)(F)F)c2)CC1)c1ccc2c(c1)CN(Cc1ccc(F)cc1)CCC2 (as salt: hydrochloride) | 197 to 199 °C
19 | O=C(CCCC1CCN(Cc2ccccc2Cl)CC1)c1ccc2c(c1)CCN(Cc1ccc(F)cc1F)CC2 (as salt: hydrochloride) | 193 to 196 °C
20 | Cc1ccccc1CN1CCC(CCCC(=O)c2ccc3c(c2)CCN(Cc2ccc(F)cc2F)CC3)CC1 (as salt: hydrochloride) | 208 to 210 °C
21 | CC(=O)Nc1ccccc1CN1CCC(CCCC(=O)c2ccc3c(c2)CCN(Cc2ccccc2C)CC3)CC1 (as salt: hydrochloride) | 172 to 178 °C
22 | Cc1ccccc1CN1CCc2ccc(C(=O)CCCC3CCN(Cc4ccccc4N)CC3)cc2CC1 (as salt: hydrochloride) | 230 to 235 °C
23 | Cc1ccccc1CN1CCc2ccc(C(=O)CCCC3CCN(Cc4ccccc4NS(C)(=O)=O)CC3)cc2CC1 (as salt: hydrochloride) | 185 to 195 °C (dec.)
24 | COC(=O)c1ccccc1CN1CCC(CCCC(=O)c2ccc3c(c2)CCN(Cc2ccccc2C)CC3)CC1 (as salt: hydrochloride) | 189 to 192 °C
25 | COc1ccc(CN2CCC(CCC(=O)c3ccc4c(c3)CCN(Cc3ccc(F)cc3)CC4)CC2)cc1 (as salt: hydrochloride) | 235 to 238 °C (dec.)
26 | O=C(CCC1CCN(Cc2ccccc2)CC1)c1ccc2c(c1)CCN(Cc1ccc(F)cc1)CC2 (as salt: hydrochloride) | 217 to 220 °C
27 | CCOC(=O)c1ccc(CN2CCC(CCC(=O)c3ccc4c(c3)CCN(Cc3ccc(F)cc3)CC4)CC2)cc1 (as salt: hydrochloride) | 212 to 218 °C (dec.)
28 | O=C(CCC1CCN(Cc2cccc(C(F)(F)F)c2)CC1)c1ccc2c(c1)CN(Cc1ccc(F)cc1)CCO2 (as salt: hydrochloride) | 225 to 227 °C
29 | O=C(CCC1CCN(Cc2ccccc2Cl)CC1)c1ccc2c(c1)CN(Cc1ccc(F)cc1)CCO2 (as salt: hydrochloride) | 227 to 229 °C
30 | Cc1ccc(CN2CCC(CCC(=O)c3ccc4c(c3)CN(Cc3ccc(F)cc3)CCO4)CC2)cc1 (as salt: hydrochloride) | 240 to 242 °C
31 | COc1ccc(CN2CCc3ccc(C(=O)CCC4CCN(Cc5ccc(F)cc5)CC4)cc3CC2)cc1 (as salt: hydrochloride) | 218 to 226 °C (dec.)

Other lines, results leading:

Row | melting point | SMILES
32 | 226 to 229 °C (dec.) | Cl.Cl.O=C(CCCC1CCN(Cc2ccc(F)cc2)CC1)c1ccc2c(c1)CCN(Cc1ccccc1)CC2
33 | 226 to 229 °C (dec.) | Cc1ccccc1CN1CCC(CCCC(=O)c2ccc3c(c2)CCN(Cc2ccccc2)CC3)CC1.Cl.Cl
34 | 222 to 225 °C (dec.) | Cc1cccc(CN2CCC(CCCC(=O)c3ccc4c(c3)CCN(Cc3ccccc3)CC4)CC2)c1.Cl.Cl
35 | 207 to 210 °C (dec.) | Cc1ccc(CN2CCC(CCCC(=O)c3ccc4c(c3)CCN(Cc3ccccc3)CC4)CC2)cc1.Cl.Cl
36 | 197 to 200 °C | Cc1ccccc1CN1CCc2ccc(C(=O)CCCC3CCN(Cc4ccc(F)cc4)CC3)cc2CC1.Cl.Cl
37 | 206 to 209 °C (dec.) | Cc1ccc(CN2CCC(CCCC(=O)c3ccc4c(c3)CCN(Cc3ccc(C#N)cc3)CC4)CC2)cc1.Cl.Cl
38 | 93 to 94 °C | CC(=O)N1CCc2ccc(C(=O)CCCC3CCN(Cc4ccccc4C)CC3)cc2CC1.Cl
39 | 118 to 121 °C | Cl.O=C(CCC1CCN(C(=O)c2ccccc2)CC1)c1ccc2c(c1)CCN(Cc1ccccc1)CC2
40 | 95 to 98 °C | COc1ccc(CN2CCc3cc(C(=O)CCC4CCN(Cc5ccccc5)CC4)ccc32)cc1.O=C(O)/C=C/C(=O)O
41 | 212 to 215 °C | COc1ccc(CN2CCc3ccc(C(=O)CCC4CCN(C(=O)c5ccc(-c6ccccc6)cc5)CC4)cc3CC2)cc1.Cl
42 | 228 to 230 °C | O=C(CCC1CCN(Cc2cccnc2)CC1)c1ccc2c(c1)CN(Cc1ccccc1)CCO2 (as salt: hydrochloride)
43 | 235 to 237 °C | O=C(CCC1CCN(Cc2cccc(C(F)(F)F)c2)CC1)c1ccc2c(c1)CN(Cc1ccccc1)CCO2 (as salt: hydrochloride)
44 | 239 to 241 °C | O=C(CCC1CCN(Cc2ccc(C(F)(F)F)cc2)CC1)c1ccc2c(c1)CN(Cc1ccccc1)CCO2 (as salt: hydrochloride)
45 | 230 to 234 °C (dec.) | O=C(CCCC1CCN(Cc2cccc(Cl)c2)CC1)c1ccc2c(c1)CCN(Cc1ccccc1)CC2 (as salt: hydrochloride)
46 | 245 to 248 °C (dec.) | O=C(CCCC1CCN(Cc2cccc(F)c2)CC1)c1ccc2c(c1)CCN(Cc1ccccc1)CC2 (as salt: hydrochloride)
47 | 242 to 247 °C (dec.) | O=C(CCCC1CCN(Cc2ccc([N+](=O)[O-])cc2)CC1)c1ccc2c(c1)CCN(Cc1ccccc1)CC2 (as salt: hydrochloride)

Row | melting point | SMILES
48 | 241 to 243 °C | O=C(CCC1CCN(Cc2cc(F)cc(F)c2)CC1)c1ccc2c(c1)CN(Cc1ccccc1)CCO2 (as salt: hydrochloride)
49 | 158 to 164 °C | CS(=O)(=O)Nc1cccc(CN2CCC(CCCC(=O)c3ccc4c(c3)CCN(Cc3ccccc3)CC4)CC2)c1 (as salt: hydrochloride)
50 | 209 to 212 °C | Cc1cccc(CN2CCc3ccc(C(=O)CCCC4CCN(Cc5ccc(F)cc5)CC4)cc3CC2)c1 (as salt: hydrochloride)
51 | 172 to 174 °C | Cc1ccc(CN2CCC(CCCC(=O)c3ccc4c(c3)CCN(Cc3cccc([N+](=O)[O-])c3)CC4)CC2)cc1 (as salt: hydrochloride)
52 | 245 to 247 °C | O=C(CCC1CCNCC1)c1ccc2c(c1)CN(Cc1ccc(F)cc1)CCC2 (as salt: hydrochloride)
53 | 111 to 113 °C | COC(=O)c1ccccc1CN1CCc2ccc(C(=O)CCCC3CCN(Cc4ccccc4C)CC3)cc2CC1 (as salt: hydrochloride)
54 | 225 to 227 °C (dec.) | O=C(CCC1CCNCC1)c1ccc2c(c1)CCN(Cc1ccc(F)cc1)CC2 (as salt: hydrochloride)
55 | 199 to 203 °C | COc1ccc(CN2CCC(CCC(=O)c3ccc4c(c3)CCN(Cc3ccc(F)cc3)CC4)CC2)cc1OC (as salt: hydrochloride)
56 | 230 to 236 °C (dec.) | CC(C)(C)c1ccc(CN2CCC(CCC(=O)c3ccc4c(c3)CCN(Cc3ccc(F)cc3)CC4)CC2)cc1 (as salt: hydrochloride)
57 | 236 to 238 °C | Cc1ccc(CN2CCC(CCC(=O)c3ccc4c(c3)CN(Cc3ccccc3)CCO4)CC2)cc1 (as salt: hydrochloride)
58 | 166 to 169 °C | O=C(CCC1CCN(Cc2ccc(O)cc2)CC1)c1ccc2c(c1)CCN(Cc1ccc(F)cc1)CC2 (as salt: hydrochloride)
59 | 242 to 244 °C | O=C(CCC1CCN(Cc2ccccc2F)CC1)c1ccc2c(c1)CN(Cc1ccccc1)CCO2 (as salt: hydrochloride)
60 | 241 to 243 °C | O=C(CCC1CCN(Cc2cccc(F)c2)CC1)c1ccc2c(c1)CN(Cc1ccccc1)CCO2 (as salt: hydrochloride)
61 | 203 to 204 °C | O=C(CCC1CCN(Cc2ccccc2C(F)(F)F)CC1)c1ccc2c(c1)CN(Cc1ccc(F)cc1)CCO2 (as salt: hydrochloride)
62 | 238 to 240 °C | O=C(CCC1CCN(Cc2ccccn2)CC1)c1ccc2c(c1)CN(Cc1ccccc1)CCO2 (as salt: hydrochloride)
63 | 220 to 225 °C (dec.) | COc1ccc(CN2CCc3ccc(C(=O)CCC4CCN(Cc5ccc(-c6ccccc6)cc5)CC4)cc3CC2)cc1 (as salt: hydrochloride)

— patent US6534496B1, “Thermogenic composition and benzazepine thermogenics” (Takeda Chemical Industries, Inc., priority 1997, dated 2003)
